The values that follow come from US12398154B2, “Azaquinazoline pan-KRas inhibitors” (Mirati Therapeutics, Inc., priority 2020, dated 2025).

Assay [1] deals with phospho-ERK in NCI-H460 (Q61H) cells. Description: Inhibition of KRas-mediated phosphorylation of ERK (in-cell western). The format is cell-based. Particulars: Homo sapiens, NCI-H460, 3 h, 3 hours compound, phospho-ERK normalized to GAPDH. As for the experimental part:
(§1) Diluted compounds were then added in a final concentration of 0.5% DMSO. After 3 hours, 50 μL of 4.0% formaldehyde was added and the plates incubated at room temperature for 20 minutes. The plates were then dumped and permeabilized with 150 μL of ice cold 100% methanol for 10 minutes.
(§2) The amount of phospho-ERK was determined using an antibody specific for the phosphorylated form of ERK and compared to the amount of GAPDH. […] The plates were incubated overnight at 4° C. The plates were washed 3× with 150 uL PBS+0.1% Tween 20.
(§3) The plates were washed 3× with 150 uL PBS+0.1% Tween 20. Plates were imaged dry on a Li-COR Odyssey CLX plate reader.
(§4) The phospho-ERK (Thr202/Tyr204) signal was normalized to the GAPDH signal for each well and percent of DMSO control values were calculated. IC50 values were generated using a 4-parameter fit of the dose response curve.

Assay [2] relates to phospho-ERK in NCI-H727 (G12V) cells. The description is as above. It counts as cell-based. Particulars: Homo sapiens, NCI-H727, 3 h, 3 hours compound, phospho-ERK normalized to GAPDH. As for the experimental part: as §1, §2, §3, §4
The test system of assay [3] is phospho-ERK in AsPC-1 (G12D) cells. The description is as above. It counts as cell-based. Particulars: Homo sapiens, ASPC1, 3 h, 3 hours compound, phospho-ERK normalized to GAPDH. As for the experimental part:
as §1, §2, §3, §4

The target of the next assay is KRas G12V (Homo sapiens, UniProt P01116, G12V). As to the kind of experiment: biochemical.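 Further: KRas binding measured by TR-FRET displacement at room temperature, IC50 fitted from percent of control values.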
The next assay addresses KRas G12R (Homo sapiens, UniProt P01116, G12R). As to the kind of experiment: biochemical.
The target of another assay is KRas G12D (Homo sapiens, UniProt P01116, G12D). As to the kind of experiment: biochemical.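 Further: TR-FRET displacement binding assay on KRas, read after a one-hour incubation at room temperature, IC50 fitted from percent-of-control values.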
Another assay concerns pERK in PSN1 cells. Description: Inhibition of KRas phosphorylation of ERK (Cisbio HTRF pERK assay). The note with it: Homo sapiens, PSN1, 3 h, read-out: Inhibition (HTRF IC50) of KRas-mediated Phosphorylation of ERK, PSN1. On the technique in general: In TR-FRET formats the signal depends on donor and acceptor labels being close together.
Another assay concerns pERK in MKN1 cells. The description is as above. The note with it: Homo sapiens, MKN-1, 3 h, read-out: Inhibition (HTRF IC50) of KRas-mediated Phosphorylation of ERK, MKN1.

Chain of KRas G12D (P01116 1-169 isoform P01116-2 G12D): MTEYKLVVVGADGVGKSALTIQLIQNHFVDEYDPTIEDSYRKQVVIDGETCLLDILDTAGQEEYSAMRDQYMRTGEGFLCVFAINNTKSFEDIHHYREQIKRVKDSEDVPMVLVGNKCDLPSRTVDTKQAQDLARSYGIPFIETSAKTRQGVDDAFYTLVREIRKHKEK
Chain of KRas G12V (P01116 1-169 isoform P01116-2 G12V): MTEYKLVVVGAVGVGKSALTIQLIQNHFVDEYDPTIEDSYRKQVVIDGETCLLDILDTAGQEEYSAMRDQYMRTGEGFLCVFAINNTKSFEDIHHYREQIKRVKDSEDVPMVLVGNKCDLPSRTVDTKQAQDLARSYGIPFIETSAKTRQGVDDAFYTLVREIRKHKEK
Chain of KRas G12R (P01116 1-169 isoform P01116-2 G12R): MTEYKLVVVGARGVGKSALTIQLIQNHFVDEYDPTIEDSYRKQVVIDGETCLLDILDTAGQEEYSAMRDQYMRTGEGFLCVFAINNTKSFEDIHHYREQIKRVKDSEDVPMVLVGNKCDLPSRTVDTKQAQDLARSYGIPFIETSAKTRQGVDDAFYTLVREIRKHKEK

As to `CCc1c(F)ccc2cc(O)cc(-c3ncc4c(NC56CC(CO)(C5)C6)nc(OC[C@@]56CCCN5C[C@H](F)C6)nc4c3F)c12` [Example 167, 5-ethyl-6-fluoro-4-(8-fluoro-2-(((2R,7aS)-2-fluorohexahydro-1H-pyrrolizin-7a-yl)methoxy)-4-((3-(hydroxymethyl)bicyclo[1.1.1]pentan-1-yl)amino)pyrido[4,3-d]pyrimidin-7-yl) naphthalen-2-ol], the IC50 in assay [1] is 623 nM; in assay [2], 1250 nM; in assay [3], 6760 nM; against KRas G12V, at most 0.002 µM; at KRas G12R it was at most 0.002 µM; at KRas G12D, 0.016 µM. The 50% inhibitory concentration (IC50) in the assay on pERK in PSN1 cells is at least 10 µM; in the assay with pERK in MKN1 cells, 0.003 µM.
As for `CCc1c(F)ccc2cc(O)cc(-c3ncc4c(NCCc5c[nH]nn5)nc(OC[C@@]56CCCN5C[C@H](F)C6)nc4c3F)c12` [Example 169, 4-(4-((2-(1H-1,2,3-triazol-4-yl)ethyl)amino)-8-fluoro-2-(((2R,7aS)-2-fluorohexahydro-1H-pyrrolizin-7a-yl)methoxy)pyrido[4,3-d]pyrimidin-7-yl)-5-ethyl-6-fluoronaphthalen-2-ol], the half-inhibitory concentration (IC50) in assay [1] was 931 nM; in assay [2], 1810 nM; in assay [3] it was 2890 nM; on KRas G12V, at most 0.002 µM; at KRas G12R it was at most 0.002 µM; against KRas G12D it was 0.004 µM. Further, the half-inhibitory concentration (IC50) is at least 10 µM in the assay on pERK in PSN1 cells and 0.1 µM in the assay with pERK in MKN1 cells.
As for `CCc1c(F)ccc2cc(O)cc(-c3ncc4c(NCc5ccc6nonc6c5)nc(OC[C@@]56CCCN5C[C@H](F)C6)nc4c3F)c12` [Example 175, 4-(4-((benzo[c][1,2,5]oxadiazol-5-ylmethyl)amino)-8-fluoro-2-(((2R,7aS)-2-fluorohexahydro-1H-pyrrolizin-7a-yl)methoxy)pyrido[4,3-d]pyrimidin-7-yl)-5-ethyl-6-fluoronaphthalen-2-ol], the half-inhibitory concentration (IC50) was 675 nM in assay [1]; 756 nM in assay [2]; 1720 nM in assay [3]; at most 0.002 µM at KRas G12V; at most 0.002 µM at KRas G12R; 0.038 µM on KRas G12D. Further, the IC50 in the assay on pERK in PSN1 cells was at least 10 µM; with pERK in MKN1 cells, 0.039 µM.
`CCc1c(F)ccc2cc(O)cc(-c3ncc4c(N5C[C@H](O)C[C@@H](F)C5)nc(OC[C@@]56CCCN5C[C@H](F)C6)nc4c3F)c12` [Example 178]: the IC50 in assay [1] worked out at 728 nM; in assay [2] it was 2110 nM; in assay [3] it was 606 nM; at KRas G12V, 0.007 µM; on KRas G12R, 0.014 µM; against KRas G12D, 0.018 µM. Further, the concentration for half-maximal inhibition (IC50) is at least 10 µM in the assay on pERK in PSN1 cells and 0.049 µM in the assay with pERK in MKN1 cells.
For the compound `CCc1c(F)ccc2cc(O)cc(-c3ncc4c(N5C[C@@H](C)C[C@@H](O)C5)nc(OC[C@@]56CCCN5C[C@H](F)C6)nc4c3F)c12` [Example 180], the IC50 is 113 nM in assay [1]; 623 nM in assay [2]; 205 nM in assay [3]; at most 0.002 µM against KRas G12V; 0.004 µM at KRas G12R; 0.004 µM against KRas G12D. The concentration for half-maximal inhibition (IC50) was found to be 6.91 µM in the assay with pERK in PSN1 cells and 0.01 µM in the assay with pERK in MKN1 cells.
For `CCc1c(F)ccc2cc(O)cc(-c3ncc4c(N5CCC[C@@H](O)[C@H]5C)nc(OC[C@@]56CCCN5C[C@H](F)C6)nc4c3F)c12` [Example 181], the IC50 in assay [1] is 584 nM; in assay [2] it was 1610 nM; in assay [3], 1540 nM; against KRas G12V it was 0.017 µM; on KRas G12R, 0.01 µM; on KRas G12D, 0.029 µM. The half-maximal inhibitory concentration (IC50) in the assay with pERK in PSN1 cells is 6.7 µM; in the assay with pERK in MKN1 cells it was 0.139 µM.
As to `CCc1c(F)ccc2cc(O)cc(-c3ncc4c(N5CCC[C@@H](O)[C@@H]5C)nc(OC[C@@]56CCCN5C[C@H](F)C6)nc4c3F)c12` [Example 185], the IC50 in assay [1] was found to be 424 nM; in assay [2], 481 nM; in assay [3], 306 nM; on KRas G12V, 0.009 µM; against KRas G12R, 0.009 µM; against KRas G12D, 0.011 µM. The half-maximal inhibitory concentration (IC50) is 4.84 µM in the assay with pERK in PSN1 cells and 0.017 µM with pERK in MKN1 cells.
In the case of `CCc1c(F)ccc2cc(O)cc(-c3ncc4c(N5C[C@H](C)C[C@@H](O)C5)nc(OC[C@@]56CCCN5C[C@H](F)C6)nc4c3F)c12` [Example 187], the IC50 in assay [1] amounted to 133 nM; in assay [2], 550 nM; in assay [3], 470 nM; on KRas G12V it was 0.005 µM; on KRas G12R, 0.006 µM; against KRas G12D, 0.012 µM. The concentration for half-maximal inhibition (IC50) is at least 10 µM in the assay on pERK in PSN1 cells and 0.038 µM in the assay with pERK in MKN1 cells.
With `CCc1c(F)ccc2cc(O)cc(-c3ncc4c(N5CC[C@H](C)[C@@H](O)C5)nc(OC[C@@]56CCCN5C[C@H](F)C6)nc4c3F)c12` [Example 188], the IC50 in assay [1] was found to be 478 nM; in assay [2], 2140 nM; in assay [3] it was 2070 nM; against KRas G12V, 0.019 µM; on KRas G12R, 0.023 µM; on KRas G12D, 0.048 µM. Also, the half-inhibitory concentration (IC50) in the assay with pERK in PSN1 cells was at least 10 µM; with pERK in MKN1 cells it was 0.077 µM.
Turning to `CCc1c(F)ccc2cc(O)cc(-c3ncc4c(N5CC[C@@H](C)[C@@H](O)C5)nc(OC[C@@]56CCCN5C[C@H](F)C6)nc4c3F)c12` [Example 189], the 50% inhibitory concentration (IC50) is 377 nM in assay [1]; 1430 nM in assay [2]; 1240 nM in assay [3]; 0.018 µM at KRas G12V; 0.018 µM against KRas G12R; 0.032 µM at KRas G12D. The IC50 in the assay on pERK in PSN1 cells worked out at 5.54 µM; with pERK in MKN1 cells, 0.029 µM.
For the compound `CCc1c(F)ccc2cc(O)cc(-c3ncc4c(N5CCC(F)(F)C(O)C5)nc(OC[C@@]56CCCN5C[C@H](F)C6)nc4c3F)c12` (some centres unmarked) [Example 191], the IC50 stood at 230 nM in assay [1]; 714 nM in assay [2]; 665 nM in assay [3]; 0.004 µM against KRas G12V; 0.004 µM against KRas G12R; 0.009 µM on KRas G12D. Moreover, the IC50 in the assay on pERK in PSN1 cells stood at 5.85 µM; in the assay with pERK in MKN1 cells it was 0.015 µM.
As for `CCc1c(F)ccc2cc(O)cc(-c3ncc4c(N5C[C@H](O)C[C@H](F)C5)nc(OC[C@@]56CCCN5C[C@H](F)C6)nc4c3F)c12` [Example 192], the IC50 in assay [1] is 51 nM; in assay [2], 191 nM; in assay [3], 90 nM; against KRas G12V, at most 0.002 µM; at KRas G12R, at most 0.002 µM; against KRas G12D, at most 0.002 µM. Further, the IC50 in the assay on pERK in PSN1 cells worked out at 7.34 µM; in the assay with pERK in MKN1 cells, 0.004 µM.
In the case of `CCc1c(F)ccc2cc(O)cc(-c3ncc4c(NCCCc5cccnc5)nc(OC[C@@]56CCCN5C[C@H](F)C6)nc4c3F)c12` [Example 198, 5-ethyl-6-fluoro-4-(8-fluoro-2-(((2R,7aS)-2-fluorohexahydro-1H-pyrrolizin-7a-yl)methoxy)-4-((3-(pyridin-3-yl)propyl)amino)pyrido[4,3-d]pyrimidin-7-yl)naphthalen-2-ol], the IC50 is 803 nM in assay [1]; 1750 nM in assay [2]; 2690 nM in assay [3]; 0.009 µM against KRas G12V; 0.008 µM on KRas G12R; 0.086 µM at KRas G12D. Besides, the concentration for half-maximal inhibition (IC50) with pERK in PSN1 cells was at least 10 µM; in the assay with pERK in MKN1 cells, 0.183 µM.

Broadly, the IC50 is the concentration that inhibits the measured activity by half.
